Like-named read-outs stand apart in the source and are kept apart here.
What was measured:
α(2,3)sialyltransferases = assay: Suitability as substrate of α(2,3)sialyltransferases; type: biochemical; details: all known α(2,3)sialyltransferases
From the text: First, the corresponding galactoside Compound 3 [Jansson et al., J. Org. […] Second, after protection of hydroxy and carboxylate groups and selective cleavage of 2-(trimethylsilyl)ethyl glycoside, the sialoside Compound 4 is readily converted to a disaccharide glycosyl donor that can be used in the block chemical synthesis of ganglioside GM4 and more complex sialosides [(a) Suguimoto et al., Tetrahedron Lett., 31:385 (1990); (b) Kameyama et al., Carbohydr. Res., 209 (1991)] as reported by others.

[1] = biological target: T1, α-(2,3)Sialyltransferase EC 2.4.99.4 (Sus scrofa, UniProt Q02745); details: acceptor for EC 2.4.99.4, cited from earlier work
T1 sequence (Q02745 1-343): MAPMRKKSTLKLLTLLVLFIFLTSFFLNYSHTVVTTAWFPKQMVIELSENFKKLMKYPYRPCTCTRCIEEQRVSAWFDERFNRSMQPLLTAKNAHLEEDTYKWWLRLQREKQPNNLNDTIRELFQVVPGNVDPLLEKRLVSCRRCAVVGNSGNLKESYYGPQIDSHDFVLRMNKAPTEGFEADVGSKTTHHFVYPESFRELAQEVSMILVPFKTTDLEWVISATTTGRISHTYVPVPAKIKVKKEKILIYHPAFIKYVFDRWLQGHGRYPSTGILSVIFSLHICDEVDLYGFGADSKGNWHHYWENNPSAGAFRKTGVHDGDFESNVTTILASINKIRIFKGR

[2] = biological target: T2, α-(2,3)Sialyltransferase EC 2.4.99.6 (Rattus norvegicus, UniProt Q02734); details: acceptor for EC 2.4.99.6, cited from earlier work
T2 sequence (Q02734 1-374): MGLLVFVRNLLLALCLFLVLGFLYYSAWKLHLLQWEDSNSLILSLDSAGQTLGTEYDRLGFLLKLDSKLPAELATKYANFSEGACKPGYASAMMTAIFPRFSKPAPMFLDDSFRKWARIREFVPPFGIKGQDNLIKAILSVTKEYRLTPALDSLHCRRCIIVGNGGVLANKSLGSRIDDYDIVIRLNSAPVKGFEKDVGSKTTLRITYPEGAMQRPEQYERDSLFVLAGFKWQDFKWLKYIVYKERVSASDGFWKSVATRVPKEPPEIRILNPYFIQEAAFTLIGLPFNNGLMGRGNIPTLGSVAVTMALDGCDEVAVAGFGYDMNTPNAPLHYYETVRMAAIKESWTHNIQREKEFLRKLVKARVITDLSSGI

T. crusi trans-sialidase = T. crusi trans-sialidase (Trypanosoma cruzi, UniProt P23253); assay: Suitability as acceptor for the trans-sialidase; type: biochemical
From the text: The third principal enzyme used here is the trans-sialidase of Trypanosoma crusi (T. crusi) whose isolation and reactivity was reported in Vendekerckhove et al., Glycobiology, 6:541 (1992). This enzyme is often referred to as the trans-sialidase, and has a broad specificity for transferring sialic acid from a wide variety of NeuAcα2→3βGal-containing donor oligosaccharides to the non-reducing terminus (end) of a narrower range oligosaccharide acceptors whose nonreducing terminal saccharide is a β-linked Gal. A sialic acid is not transferred from an α(2,6)-linked Gal.
Thus, using the α(2,3)sialyltransferase acceptors of Scheme 2 (Compounds 2a and 2b) as exemplary and keeping in mind the before-discussed structural preferences and requirements of the T. crusi trans-sialidase for an acceptor substrate, it is seen that Compound 2a that has a non-reducing terminal Galβ1→3GlcNAc linkage, whereas Compound 2b contains a Galβ1→3GalNAc linkage, neither of which is preferred for an acceptor for the trans-sialidase, and both are present in a catalytic amount.

[3] = value approximated from the data in Rearick et al.

Chain of T. crusi trans-sialidase (P23253 whole entry): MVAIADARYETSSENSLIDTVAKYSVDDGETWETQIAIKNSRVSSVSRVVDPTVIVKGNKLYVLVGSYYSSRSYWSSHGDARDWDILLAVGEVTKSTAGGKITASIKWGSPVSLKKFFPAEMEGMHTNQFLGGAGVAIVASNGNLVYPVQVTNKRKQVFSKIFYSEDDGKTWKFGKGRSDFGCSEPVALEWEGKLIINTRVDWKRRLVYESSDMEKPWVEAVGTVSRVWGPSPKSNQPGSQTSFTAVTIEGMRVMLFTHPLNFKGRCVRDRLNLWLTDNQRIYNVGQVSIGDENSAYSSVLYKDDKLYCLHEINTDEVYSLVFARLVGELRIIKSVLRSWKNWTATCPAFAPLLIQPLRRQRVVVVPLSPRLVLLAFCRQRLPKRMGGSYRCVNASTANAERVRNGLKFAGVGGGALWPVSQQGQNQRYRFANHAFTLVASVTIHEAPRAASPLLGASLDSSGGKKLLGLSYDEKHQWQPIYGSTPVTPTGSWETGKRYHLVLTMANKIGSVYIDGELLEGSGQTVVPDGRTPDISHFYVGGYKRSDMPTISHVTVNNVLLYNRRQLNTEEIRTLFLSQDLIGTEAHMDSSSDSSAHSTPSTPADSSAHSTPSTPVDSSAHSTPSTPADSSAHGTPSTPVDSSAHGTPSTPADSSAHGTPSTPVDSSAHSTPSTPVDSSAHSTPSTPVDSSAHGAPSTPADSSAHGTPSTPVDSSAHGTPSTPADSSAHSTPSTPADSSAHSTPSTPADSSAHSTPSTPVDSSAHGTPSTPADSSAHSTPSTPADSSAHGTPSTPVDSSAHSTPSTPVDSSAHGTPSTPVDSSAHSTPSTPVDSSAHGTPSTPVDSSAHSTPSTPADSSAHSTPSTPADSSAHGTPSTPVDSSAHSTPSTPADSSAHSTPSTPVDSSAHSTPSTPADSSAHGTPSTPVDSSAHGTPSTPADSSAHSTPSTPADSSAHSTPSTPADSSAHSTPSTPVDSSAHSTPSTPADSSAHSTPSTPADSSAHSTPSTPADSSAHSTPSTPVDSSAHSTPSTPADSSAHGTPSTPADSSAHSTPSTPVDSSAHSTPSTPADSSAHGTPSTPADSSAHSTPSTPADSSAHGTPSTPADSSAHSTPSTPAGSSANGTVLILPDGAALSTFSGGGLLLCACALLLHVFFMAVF

SMILES	Km /Vmax [1] [mM-units mg]	Km [2] [µM]	Km /Vmax [2] [mM-units mg]	also measured
C[Si](C)(C)CCO[C@@H]1O[C@H](CO)[C@H](O)[C@H](O)[C@H]1O [Compound 3]	–	–	–	substrate quality for α(2,3)sialyltransferases (α(2,3)sialyltransferases): poor substrate
CO[C@@H]1O[C@H](CO)[C@H](O)[C@H](O)[C@H]1O [Galβ1→OCH3]	–	–	–	Km /Vmax [1, 3]: > 100 mM-units mg
CC(=O)N[C@H]1[C@H](O[C@H]2[C@@H](O)[C@@H](CO)O[C@@H](O[C@H]3[C@H](O)[C@@H](O)C(O)O[C@@H]3CO)[C@@H]2O)O[C@H](CO)[C@@H](O)[C@@H]1O[C@@H]1O[C@H](CO)[C@H](O)[C@H](O)[C@H]1O (some centres unmarked) [lacto-N-tetraose, Galβ1→3GlcNAcβ1→3Galβ1→4Glc]	7.5	90	0.09	Km [1]: 27000 µM
CC(=O)N[C@H]1[C@H](O[C@H]2[C@@H](O)[C@@H](CO)O[C@@H](O[C@H]3[C@H](O)[C@@H](O)C(O)O[C@@H]3CO)[C@@H]2O)O[C@H](CO)[C@@H](O[C@@H]2O[C@H](CO)[C@H](O)[C@H](O)[C@H]2O)[C@@H]1O (some centres unmarked) [lacto-N-neo-tetraose, Galβ1→4GlcNAcβ1→3Galβ1→4Glc]	–	4220	4.3	Km /Vmax [1, 3]: > 100 mM-units mg; Vmax [2]: 0.98 units/mg
CC(=O)N[C@H]1[C@H](OCC[Si](C)(C)C)O[C@H](CO)[C@H](O)[C@@H]1O[C@@H]1O[C@H](CO)[C@H](O)[C@H](O)[C@H]1O [Compound 2b]	–	–	–	acceptor quality for the trans-sialidase (T. crusi trans-sialidase): relatively poor acceptors
CC(=O)N[C@H]1C(O)O[C@H](CO[C@@H]2O[C@H](CO)[C@H](O)[C@H](O)[C@H]2O)[C@@H](O)[C@@H]1O (some centres unmarked) [Galβ1→6GlcNAc]	121	–	–	–
CC(=O)N[C@H]1C(O)O[C@H](CO)[C@H](O)[C@@H]1O[C@@H]1O[C@H](CO)[C@H](O)[C@H](O)[C@H]1O (some centres unmarked) [Galβ1→3GalNAc]	0.024	–	–	Km /Vmax ([2]; value approximated from the data in Weinstein et al.): > 10 mM-units mg
CC(=O)N[C@H]1C(O)O[C@H](CO)[C@@H](O[C@@H]2O[C@H](CO)[C@H](O)[C@H](O)[C@H]2O)[C@@H]1O (some centres unmarked) [Galβ1→4GlcNAc]	382	2700	3.6	–
CC(=O)N[C@H]1[C@H](O[C@H]2[C@@H](O)[C@@H](CO)O[C@@H](O[C@H]3[C@H](O)[C@@H](O)C(O)O[C@@H]3CO)[C@@H]2O)O[C@H](CO)[C@@H](O)[C@@H]1O[C@@H]1O[C@H](CO)[C@H](O)[C@H](O)[C@H]1O (some centres unmarked) [Compound 2a]	–	–	–	acceptor quality for the trans-sialidase (T. crusi trans-sialidase): relatively poor acceptors
CC(=O)N[C@H]1C(O)O[C@H](CO)[C@@H](O)[C@@H]1O[C@@H]1O[C@H](CO)[C@H](O)[C@H](O)[C@H]1O (some centres unmarked) [Galβ1→3GlcNAc]	15	640	0.55	–
OC[C@H]1O[C@@H](O[C@H]2[C@H](O)[C@@H](O)C(O)O[C@@H]2CO)[C@H](O)[C@@H](O)[C@H]1O (some centres unmarked) [Galβ1→4Glc]	290	–	10	–
